Test results from BindingDB's records for doi:10.1021/jm990277d (Warner-Lambert, 2000).

Experiment: Inhibition of [3H]- pentazocine binding against guinea pig brain Sigma opioid receptor type 1

O=C1COc2cc(CN3CCN(c4ccc(Cl)cc4)CC3)ccc2N1 [7-[4-(4-Chloro-phenyl)-piperazin-1-ylmethyl]-4H-benzo[1,4]oxazin-3-one]
IC50: 285 nM
